Measured values from patent publication US20260356819A1, “OXOISOINDOLINYL-SUBSTITUTED […] DERIVATIVE AND USE THEREOF” (GLUETACS THERAPEUTICS (SHANGHAI) CO., LTD., priority 2023, published 2026).

Columns and labels:
Type in all cases: cell-based
Details in all cases: compounds at 50 nM and 500 nM
[1] = biological target: T1, WEE1 (Homo sapiens, UniProt P30291+Q96SW2); assay: Western blot degradation of WEE1 in hPBMCs (24 h)
T1 construct: The supernatant was aspirated as the extracted total cell protein; endogenous in cells; host or cells: human peripheral blood mononuclear cells (hPBMCs)
Summary of the method: (§1)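 Read-out is Western blot band grayscale, divided by internal control band and normalised to give percent target protein remaining; degradation rate is 1 minus that value. Cells were human PBMCs exposed to compound at 50 nM and 500 nM for 24 hours.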

[2] = biological target: T2, IKZF1 (Homo sapiens, UniProt Q13422+Q96SW2); assay: Western blot degradation of IKZF1 in hPBMCs (24 h)
T2 construct: The supernatant was aspirated as the extracted total cell protein; endogenous in cells; host or cells: human peripheral blood mononuclear cells (hPBMCs)
Summary of the method: as §1

[3] = biological target: T3, IKZF2 (Homo sapiens, UniProt Q96SW2+Q9UKS7); assay: Western blot degradation of IKZF2 in hPBMCs (24 h)
T3 construct: The supernatant was aspirated as the extracted total cell protein; endogenous in cells; host or cells: human peripheral blood mononuclear cells (hPBMCs)
Summary of the method: as §1

[4] = biological target: T4, IKZF3 (Homo sapiens, UniProt Q96SW2+Q9UKT9); assay: Western blot degradation of IKZF3 in hPBMCs (24 h)
T4 construct: The supernatant was aspirated as the extracted total cell protein; endogenous in cells; host or cells: human peripheral blood mononuclear cells (hPBMCs)
Summary of the method: as §1

[5] = biological target: T5, CK1α (Homo sapiens, UniProt P48729+Q96SW2); assay: Western blot degradation of CK1α in hPBMCs (24 h)
T5 construct: The supernatant was aspirated as the extracted total cell protein; endogenous in cells; host or cells: human peripheral blood mononuclear cells (hPBMCs)
Summary of the method: as §1

[6] = biological target: T6, GSPT1 (Homo sapiens, UniProt P15170+Q96SW2); assay: Western blot degradation of GSPT1 in hPBMCs (24 h)
T6 construct: The supernatant was aspirated as the extracted total cell protein; endogenous in cells; host or cells: human peripheral blood mononuclear cells (hPBMCs)
Summary of the method: as §1

T1 sequence (P30291 whole entry): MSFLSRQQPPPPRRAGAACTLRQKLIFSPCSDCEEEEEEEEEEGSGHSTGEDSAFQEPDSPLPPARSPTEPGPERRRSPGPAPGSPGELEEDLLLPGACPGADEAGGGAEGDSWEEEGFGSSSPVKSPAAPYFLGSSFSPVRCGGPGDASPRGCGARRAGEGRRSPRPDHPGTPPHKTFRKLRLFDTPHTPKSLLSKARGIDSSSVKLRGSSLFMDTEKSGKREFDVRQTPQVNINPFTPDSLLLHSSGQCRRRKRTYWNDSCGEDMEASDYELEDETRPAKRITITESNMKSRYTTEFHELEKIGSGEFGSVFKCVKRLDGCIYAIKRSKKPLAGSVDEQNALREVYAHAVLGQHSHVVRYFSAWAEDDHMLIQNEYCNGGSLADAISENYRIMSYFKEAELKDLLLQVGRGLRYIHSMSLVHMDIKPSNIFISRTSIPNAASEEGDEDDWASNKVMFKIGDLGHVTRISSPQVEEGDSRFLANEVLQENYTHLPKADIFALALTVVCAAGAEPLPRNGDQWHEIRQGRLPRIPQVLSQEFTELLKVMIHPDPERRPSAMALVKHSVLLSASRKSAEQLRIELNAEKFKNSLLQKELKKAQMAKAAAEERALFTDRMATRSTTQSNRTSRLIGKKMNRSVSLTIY
T1 sequence (Q96SW2 whole entry): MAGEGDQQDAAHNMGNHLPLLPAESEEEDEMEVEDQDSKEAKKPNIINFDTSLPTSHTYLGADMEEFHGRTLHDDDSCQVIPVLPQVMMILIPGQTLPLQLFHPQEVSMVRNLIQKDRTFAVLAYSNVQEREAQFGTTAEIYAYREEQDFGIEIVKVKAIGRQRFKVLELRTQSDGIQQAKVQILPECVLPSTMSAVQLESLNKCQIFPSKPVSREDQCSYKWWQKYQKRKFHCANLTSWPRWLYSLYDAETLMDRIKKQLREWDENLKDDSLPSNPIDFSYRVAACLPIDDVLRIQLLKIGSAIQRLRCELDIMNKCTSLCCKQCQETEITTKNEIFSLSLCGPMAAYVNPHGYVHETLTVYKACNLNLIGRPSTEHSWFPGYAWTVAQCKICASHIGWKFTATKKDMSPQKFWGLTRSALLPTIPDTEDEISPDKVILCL
T1 sequence (Q16531 whole entry partner): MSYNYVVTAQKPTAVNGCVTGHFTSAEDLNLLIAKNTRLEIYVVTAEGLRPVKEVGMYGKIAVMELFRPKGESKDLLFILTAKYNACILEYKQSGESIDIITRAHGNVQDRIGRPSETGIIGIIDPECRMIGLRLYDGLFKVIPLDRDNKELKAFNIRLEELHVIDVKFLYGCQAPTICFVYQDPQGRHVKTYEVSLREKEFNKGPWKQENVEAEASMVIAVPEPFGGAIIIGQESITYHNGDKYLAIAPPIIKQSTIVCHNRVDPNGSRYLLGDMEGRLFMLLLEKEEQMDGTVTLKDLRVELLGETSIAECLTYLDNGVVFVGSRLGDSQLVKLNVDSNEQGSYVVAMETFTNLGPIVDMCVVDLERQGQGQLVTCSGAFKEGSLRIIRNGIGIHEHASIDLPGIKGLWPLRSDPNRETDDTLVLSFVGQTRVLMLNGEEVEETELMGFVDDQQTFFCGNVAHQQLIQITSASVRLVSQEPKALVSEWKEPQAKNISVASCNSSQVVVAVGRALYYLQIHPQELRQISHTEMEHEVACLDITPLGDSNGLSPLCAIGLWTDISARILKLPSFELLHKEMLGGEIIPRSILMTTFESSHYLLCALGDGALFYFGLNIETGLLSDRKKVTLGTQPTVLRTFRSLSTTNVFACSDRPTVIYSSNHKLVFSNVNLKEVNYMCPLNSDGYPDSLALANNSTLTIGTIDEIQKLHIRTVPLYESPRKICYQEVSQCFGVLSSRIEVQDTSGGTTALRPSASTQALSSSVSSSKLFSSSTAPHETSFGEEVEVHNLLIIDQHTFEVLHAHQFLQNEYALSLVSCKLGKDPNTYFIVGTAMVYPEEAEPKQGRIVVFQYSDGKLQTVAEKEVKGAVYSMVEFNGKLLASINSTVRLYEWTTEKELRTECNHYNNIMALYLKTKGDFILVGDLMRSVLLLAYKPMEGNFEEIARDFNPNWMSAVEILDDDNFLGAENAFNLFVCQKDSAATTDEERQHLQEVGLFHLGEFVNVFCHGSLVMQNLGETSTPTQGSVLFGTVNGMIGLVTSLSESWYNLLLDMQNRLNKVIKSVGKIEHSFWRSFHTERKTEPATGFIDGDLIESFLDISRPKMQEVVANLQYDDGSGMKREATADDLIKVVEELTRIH
T4 sequence (Q9UKT9 whole entry): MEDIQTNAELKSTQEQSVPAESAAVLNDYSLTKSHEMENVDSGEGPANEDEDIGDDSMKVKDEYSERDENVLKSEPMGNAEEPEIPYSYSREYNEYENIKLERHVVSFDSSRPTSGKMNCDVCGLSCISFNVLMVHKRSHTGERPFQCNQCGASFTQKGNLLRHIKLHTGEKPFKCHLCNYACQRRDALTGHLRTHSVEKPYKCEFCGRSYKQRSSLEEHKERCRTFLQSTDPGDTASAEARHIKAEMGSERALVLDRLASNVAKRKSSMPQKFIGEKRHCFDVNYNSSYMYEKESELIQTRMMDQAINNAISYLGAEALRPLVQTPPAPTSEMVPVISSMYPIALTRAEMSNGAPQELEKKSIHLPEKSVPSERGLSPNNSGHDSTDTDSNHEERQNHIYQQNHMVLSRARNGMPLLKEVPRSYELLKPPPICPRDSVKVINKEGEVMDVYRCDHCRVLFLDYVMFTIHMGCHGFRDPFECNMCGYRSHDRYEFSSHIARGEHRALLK
T4 sequence (Q96SW2 whole entry): as the sequence (Q96SW2 whole entry) above
T4 sequence (Q16531 whole entry partner): as the sequence (Q16531 whole entry partner) above
T2 sequence (Q13422 whole entry): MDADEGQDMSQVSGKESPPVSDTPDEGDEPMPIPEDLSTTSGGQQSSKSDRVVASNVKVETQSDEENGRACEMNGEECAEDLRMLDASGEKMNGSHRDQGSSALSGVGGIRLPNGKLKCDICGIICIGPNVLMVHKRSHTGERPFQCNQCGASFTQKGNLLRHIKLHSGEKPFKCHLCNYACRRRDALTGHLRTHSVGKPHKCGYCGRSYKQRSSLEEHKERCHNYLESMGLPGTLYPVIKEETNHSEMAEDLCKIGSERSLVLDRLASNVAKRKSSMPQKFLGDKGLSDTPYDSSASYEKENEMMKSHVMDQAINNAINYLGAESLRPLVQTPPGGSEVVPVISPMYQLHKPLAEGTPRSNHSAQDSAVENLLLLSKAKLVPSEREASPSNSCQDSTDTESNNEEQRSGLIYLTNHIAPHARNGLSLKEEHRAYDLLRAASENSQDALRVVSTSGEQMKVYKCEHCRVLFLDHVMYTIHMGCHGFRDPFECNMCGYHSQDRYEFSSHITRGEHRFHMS
T2 sequence (Q96SW2 whole entry): as the sequence (Q96SW2 whole entry) above
T2 sequence (Q16531 whole entry partner): as the sequence (Q16531 whole entry partner) above
T6 sequence (P15170 whole entry): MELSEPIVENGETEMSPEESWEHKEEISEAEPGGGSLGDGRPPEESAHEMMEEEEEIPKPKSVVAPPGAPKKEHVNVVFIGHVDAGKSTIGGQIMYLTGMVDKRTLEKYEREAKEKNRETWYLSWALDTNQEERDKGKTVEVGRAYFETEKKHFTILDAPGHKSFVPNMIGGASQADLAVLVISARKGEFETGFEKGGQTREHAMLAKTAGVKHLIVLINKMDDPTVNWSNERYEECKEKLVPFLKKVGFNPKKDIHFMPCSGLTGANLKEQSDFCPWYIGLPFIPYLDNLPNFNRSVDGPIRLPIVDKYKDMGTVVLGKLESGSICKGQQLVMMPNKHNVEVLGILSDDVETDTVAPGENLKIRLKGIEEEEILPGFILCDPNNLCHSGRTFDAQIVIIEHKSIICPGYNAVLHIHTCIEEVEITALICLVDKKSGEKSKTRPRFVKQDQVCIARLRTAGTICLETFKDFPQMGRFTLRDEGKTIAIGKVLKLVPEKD
T6 sequence (Q96SW2 whole entry): as the sequence (Q96SW2 whole entry) above
T6 sequence (Q16531 whole entry partner): as the sequence (Q16531 whole entry partner) above
T3 sequence (Q9UKS7 whole entry): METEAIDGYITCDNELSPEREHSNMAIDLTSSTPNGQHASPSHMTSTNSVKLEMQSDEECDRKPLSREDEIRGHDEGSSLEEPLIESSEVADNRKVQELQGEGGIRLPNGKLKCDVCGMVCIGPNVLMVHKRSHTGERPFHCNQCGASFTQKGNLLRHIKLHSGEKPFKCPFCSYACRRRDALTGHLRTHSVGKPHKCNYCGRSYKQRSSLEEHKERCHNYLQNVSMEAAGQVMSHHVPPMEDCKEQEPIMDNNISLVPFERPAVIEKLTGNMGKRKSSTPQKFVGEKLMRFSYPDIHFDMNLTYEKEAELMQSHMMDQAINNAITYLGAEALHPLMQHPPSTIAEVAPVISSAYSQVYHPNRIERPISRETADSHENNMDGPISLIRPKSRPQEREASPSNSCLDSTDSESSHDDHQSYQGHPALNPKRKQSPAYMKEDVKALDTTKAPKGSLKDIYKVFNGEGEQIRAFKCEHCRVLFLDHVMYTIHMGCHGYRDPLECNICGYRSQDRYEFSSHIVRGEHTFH
T3 sequence (Q96SW2 whole entry): as the sequence (Q96SW2 whole entry) above
T3 sequence (Q16531 whole entry partner): as the sequence (Q16531 whole entry partner) above

Compound | WEE1 substrate protein remaining % [1] | IKZF1 substrate protein remaining % [2] | IKZF2 substrate protein remaining % [3] | IKZF3 substrate protein remaining % [4] | CK1α substrate protein remaining % [5] | GSPT1 substrate protein remaining % [6]
O=C1CCN(N2C(=O)c3ccc(CN4CCC(c5cccc(F)c5Cl)CC4)cc3C2=O)C(=O)N1 [GT-06895, 5-((4-(2-chloro-3-fluorophenyl)piperidin-1-yl)methyl)-2-(2,4-dioxotetrahydropyrimidin-1(2H)-yl)isoindoline-1,3-dione] | B (80%< substrate protein remaining % ≤100%) | A (0% ≤ substrate protein remaining % ≤80%) | B (80%< substrate protein remaining % ≤100%) | B (80%< substrate protein remaining % ≤100%) | B (80%< substrate protein remaining % ≤100%) | B (80%< substrate protein remaining % ≤100%)
O=C1CCN(N2C(=O)c3ccc(CN4CC=C(c5cccc(F)c5Cl)CC4)cc3C2=O)C(=O)N1 [GT-06896, 5-((4-(2-chloro-3-fluorophenyl)-3,6-dihydropyridin-1(2H)-yl)methyl)-2-(2,4-dioxotetrahydropyrimidin-1(2H)-yl)isoindoline-1,3-dione] | B (80%< substrate protein remaining % ≤100%) | A (0% ≤ substrate protein remaining % ≤80%) | B (80%< substrate protein remaining % ≤100%) | B (80%< substrate protein remaining % ≤100%) | B (80%< substrate protein remaining % ≤100%) | B (80%< substrate protein remaining % ≤100%)
O=C1CCN(N2C(=O)c3ccc(CN4CCN(c5ccc(F)cn5)CC4)cc3C2=O)C(=O)N1 [GT-06965, 2-(2,4-dioxotetrahydropyrimidin-1(2H)-yl)-5-((4-(5-fluoropyridin-2-yl)piperazin-1-yl)methyl)isoindoline-1,3-dione] | B (80%< substrate protein remaining % ≤100%) | B (80%< substrate protein remaining % ≤100%) | A (0% ≤ substrate protein remaining % ≤80%) | B (80%< substrate protein remaining % ≤100%) | B (80%< substrate protein remaining % ≤100%) | B (80%< substrate protein remaining % ≤100%)
O=C1CCN(N2C(=O)c3ccc(CN4CCN(c5ccc(C(F)(F)F)cn5)CC4)cc3C2=O)C(=O)N1 [GT-06968, 2-(2,4-dioxotetrahydropyrimidin-1(2H)-yl)-5-((4-(5-(trifluoromethyl)pyridin-2-yl)piperazin-1-yl)methyl)isoindoline-1,3-dione] | A (0% ≤ substrate protein remaining % ≤80%) | B (80%< substrate protein remaining % ≤100%) | A (0% ≤ substrate protein remaining % ≤80%) | B (80%< substrate protein remaining % ≤100%) | B (80%< substrate protein remaining % ≤100%) | B (80%< substrate protein remaining % ≤100%)
O=C1CCN(N2C(=O)c3ccc(CN4CCN(c5ncc(Cl)cc5Cl)CC4)cc3C2=O)C(=O)N1 [GT-06969, 5-((4-(3,5-dichloropyridin-2-yl)piperazin-1-yl)methyl)-2-(2,4-dioxotetrahydropyrimidin-1(2H)-yl)isoindoline-1,3-dione] | A (0% ≤ substrate protein remaining % ≤80%) | B (80%< substrate protein remaining % ≤100%) | A (0% ≤ substrate protein remaining % ≤80%) | B (80%< substrate protein remaining % ≤100%) | B (80%< substrate protein remaining % ≤100%) | B (80%< substrate protein remaining % ≤100%)
O=C1CCN(N2C(=O)c3ccc(CN4CCN(c5nccc(I)c5F)CC4)cc3C2=O)C(=O)N1 [GT-06970, 2-(2,4-dioxotetrahydropyrimidin-1(2H)-yl)-5-((4-(3-fluoro-4-iodopyridin-2-yl)piperazin-1-yl)methyl)isoindoline-1,3-dione] | A (0% ≤ substrate protein remaining % ≤80%) | B (80%< substrate protein remaining % ≤100%) | A (0% ≤ substrate protein remaining % ≤80%) | B (80%< substrate protein remaining % ≤100%) | B (80%< substrate protein remaining % ≤100%) | B (80%< substrate protein remaining % ≤100%)
O=C1CCN(N2C(=O)c3ccc(CN4CCN(c5cccnc5)CC4)cc3C2=O)C(=O)N1 [GT-06971, 2-(2,4-dioxotetrahydropyrimidin-1(2H)-yl)-5-((4-(pyridin-3-yl)piperazin-1-yl)methyl)isoindoline-1,3-dione] | A (0% ≤ substrate protein remaining % ≤80%) | B (80%< substrate protein remaining % ≤100%) | A (0% ≤ substrate protein remaining % ≤80%) | B (80%< substrate protein remaining % ≤100%) | B (80%< substrate protein remaining % ≤100%) | B (80%< substrate protein remaining % ≤100%)
O=C1CCN(N2C(=O)c3ccc(CN4CCN(c5cncc(Cl)c5Cl)CC4)cc3C2=O)C(=O)N1 [GT-06972, 5-((4-(4,5-dichloropyridin-3-yl)piperazin-1-yl)methyl)-2-(2,4-dioxotetrahydropyrimidin-1(2H)-yl)isoindoline-1,3-dione] | A (0% ≤ substrate protein remaining % ≤80%) | B (80%< substrate protein remaining % ≤100%) | A (0% ≤ substrate protein remaining % ≤80%) | B (80%< substrate protein remaining % ≤100%) | B (80%< substrate protein remaining % ≤100%) | B (80%< substrate protein remaining % ≤100%)
O=C1CCN(N2C(=O)c3ccc(CN4CCN(c5c(Cl)ccnc5Cl)CC4)cc3C2=O)C(=O)N1 [GT-06973, 5-((4-(2,4-dichloropyridin-3-yl)piperazin-1-yl)methyl)-2-(2,4-dioxotetrahydropyrimidin-1(2H)-yl)isoindoline-1,3-dione] | A (0% ≤ substrate protein remaining % ≤80%) | A (0% ≤ substrate protein remaining % ≤80%) | B (80%< substrate protein remaining % ≤100%) | A (0% ≤ substrate protein remaining % ≤80%) | B (80%< substrate protein remaining % ≤100%) | B (80%< substrate protein remaining % ≤100%)
O=C1CCN(N2Cc3cc(CN4CCN(c5c(Cl)ccnc5Cl)CC4)ccc3C2=O)C(=O)N1 [GT-06974, 1-(5-((4-(2,4-dichloropyridin-3-yl)piperazin-1-yl)methyl)-1-oxoisoindolin-2-yl)dihydropyrimidine-2,4(1H,3H)-dione] | A (0% ≤ substrate protein remaining % ≤80%) | A (0% ≤ substrate protein remaining % ≤80%) | B (80%< substrate protein remaining % ≤100%) | A (0% ≤ substrate protein remaining % ≤80%) | B (80%< substrate protein remaining % ≤100%) | B (80%< substrate protein remaining % ≤100%)
O=C1CCN(N2C(=O)c3ccc(CN4CCN(c5ccc(Cl)nc5)CC4)cc3C2=O)C(=O)N1 [GT-07027, 5-((4-(6-chloropyridin-3-yl)piperazin-1-yl)methyl)-2-(2,4-dioxotetrahydropyrimidin-1(2H)-yl)isoindoline-1,3-dione] | A (0% ≤ substrate protein remaining % ≤80%) | B (80%< substrate protein remaining % ≤100%) | B (80%< substrate protein remaining % ≤100%) | B (80%< substrate protein remaining % ≤100%) | B (80%< substrate protein remaining % ≤100%) | A (0% ≤ substrate protein remaining % ≤80%)
